This passage reports MIC and Activity results from ChEMBL document CHEMBL4118096, “Branched Peptides: Acridine and Boronic Acid Derivatives as Antimicrobial Agents” (ACS Med Chem Lett, 2017).

Structures are written as SMILES. Values after ≈ are worked out from the molar mass of the structure shown. Where a SMILES comes first, the peptide text is derived from it. The star is where a group is joined. Acridin9yl = c1ccc2c(*)c3ccccc3nc2c1

Series [1] deals with Staphylococcus aureus. Nature of the series: Antimicrobial activity against Staphylococcus aureus ATCC 6538 measured on day 4 by broth microdilution method. It counts as functional. As to conditions: ATCC 6538, 96 h.
The next series deals with Escherichia coli. Briefly: Antimicrobial activity against Escherichia coli C ATCC 13706 measured on day 4 by broth microdilution method. The class given is functional. To be noted: C ATCC 13706, 96 h.
Series [2] has as its system Mycolicibacterium smegmatis. Briefly: Antimicrobial activity against Mycobacterium smegmatis ATCC 607 measured on day 4 by broth microdilution method. It counts as functional. As to conditions: ATCC 607, 96 h. A general note: Dilution methods test growth across graded concentrations, often in twofold steps.
For another series, the system named is Candida albicans. Briefly: Antifungal activity against Candida albicans measured on day 4 by broth microdilution method. It counts as functional. As to conditions: 96 h.
The test system of another series is Aspergillus niger. Briefly: Antifungal activity against Aspergillus niger measured on day 4 by broth microdilution method. It counts as functional. As to conditions: 96 h.
For series [3], the system named is Staphylococcus aureus. Briefly: Antimicrobial activity against methicillin-resistant Staphylococcus aureus ATCC 43300 measured on day 4 by broth microdilution method. It counts as functional. To be noted: ATCC 43300, 96 h.
For a further series, the system named is U-87 MG. Briefly: Cytotoxicity against human U87 cells assessed as decrease in cell viability at 10 uM after 24 hrs by MTT assay. It counts as cell-based. To be noted: u-87mg atcc. In general terms: Tetrazolium assays rely on reduction of a dye to a coloured formazan, in cell work by metabolically active cells.

On to `NCCCC[C@H](NC(=O)[C@H](CCCCNc1c2ccccc2nc2ccccc12)NC(=O)[C@H](CCCCNc1c2ccccc2nc2ccccc12)NC(=O)[C@H](CCCCN)NC(=O)[C@H](CCCCN)NC(=O)[C@H](CCCCN)NC(=O)[C@H](CCCCN)NC(=O)[C@H](CCCCN)NC(=O)[C@@H](N)CCCCN)C(=O)N[C@@H](Cc1ccc(O)cc1)C(=O)O` (H-KKKKKKK(Acridin9yl)K(Acridin9yl)KY-OH), for which the MIC – broadly, the lowest concentration that inhibits growth of the organism – against Staphylococcus aureus [1] turned out to be 1 µg/mL (≈ 0.592 µM); in the series with Escherichia coli, 8 µg/mL (≈ 4.74 µM); in series [2], 16 µg/mL (≈ 9.47 µM); against Candida albicans, 4 µg/mL (≈ 2.37 µM); in the series on Aspergillus niger, 62.5 µg/mL (≈ 37 µM); in the series on Staphylococcus aureus [3], 62.5 µg/mL (≈ 37 µM). For the same compound, in the series with U-87 MG, the Activity entry is recorded as “Non-Toxic”.
